# Data from patent US20130005721A1, “INDOLIZINE INHIBITORS OF 5-LIPOXYGENASE” (PANMIRA PHARMACEUTICALS, LLC, priority 2009, published 2013).
# System: human leukocytes (LTB4 production, calcium ionophore stimulated)
# Experiment: Human Leukocyte LTB4 Inhibition Assay
# Assay type: cell-based
# Conditions: Leukocyte, LTB4 by ELISA, read-out: LTB4 HLA IC50
# Description: Human Leukocyte LTB4 Inhibition Assay
# A non-limiting example of a human leukocyte inhibition assay is as follows; Blood was drawn from consenting human volunteers into heparanized tubes and 3% dextran 0.9% saline ⅓ rd volume added. After sedimentation of red blood cells a hypotonic lysis of remaining red blood cells was performed and leukocytes sedimented at 1200 rpm. The pellet was resuspended at 1.25×10^5 cells/ml and aliquoted into wells containing 1 μL 100% DMSO (vehicle) or 2.5 μL drug in 100% DMSO. Samples were incubated for 5 minutes at 37° C. and 2 μL calcium ionophore […] (from a 50 mM DMSO stock diluted just prior to the assay in Hanks balanced salt solution (Invitrogen)) to 1.25 mM) was added, solutions mixed and incubated for 30 minutes at 37° C. Samples were centrifuged at 1,200 rpm (−200×g) for 10 minutes at 4° C., plasma removed and a 1:4 dilution assayed for LTB4 concentration using ELISA (Assay Designs). Drug concentrations to achieve 50% inhibition (IC50's) of vehicle LTB4 were determined by nonlinear regression (Graphpad Prism) of % inhibition versus log drug concentration.
row,IC50 [nM],SMILES
1,< 300,"CCOC(=O)c1cc2cc(Cn3cc(C(O)(CC)C(F)(F)F)nn3)ccn2c1-c1cccnc1 (stereo not shown) [Compound 1-24, 7-[4-(1-Hydroxy-1-trifluoromethyl-propyl)-[1,2,3]triazol-1-ylmethyl]-3-pyridin-3-yl-indolizine-2-carboxylic acid ethyl ester]"
2,> 1000,"CCC(O)(c1cn(Cc2ccn3c(-c4cccnc4)c(C(N)=O)cc3c2)nn1)C(F)(F)F (stereo not shown) [Compound 1-25, 7-[4-(1-Hydroxy-1-trifluoromethyl-propyl)-[1,2,3]triazol-1-ylmethyl]-3-pyridin-3-yl-indolizine-2-carboxylic acid amide]"
3,< 300,"CCC(O)(c1cn(Cc2ccn3c(-c4cccnc4)c(C#N)cc3c2)nn1)C(F)(F)F (stereo not shown) [Compound 1-26, 7-[4-(1-Hydroxy-1-trifluoromethyl-propyl)-[1,2,3]triazol-1-ylmethyl]-3-pyridin-3-yl-indolizine-2-carbonitrile]"
4,< 300,"CCOC(=O)c1cc2cc(Cn3cc(C(O)(CC)C(F)(F)F)nn3)ccn2c1-c1ccc(Cl)cc1 (stereo not shown) [Compound 1-27, 3-(4-Chloro-phenyl)-7-[4-(1-hydroxy-1-trifluoromethyl-propyl)-[1,2,3]triazol-1-ylmethyl]-indolizine-2-carboxylic acid ethyl ester]"
5,< 300,"CCC(O)(c1cn(Cc2ccn3c(-c4ccc(Cl)cc4)c(C(N)=O)cc3c2)nn1)C(F)(F)F (stereo not shown) [Compound 1-28, 3-(4-Chloro-phenyl)-7-[4-(1-hydroxy-1-trifluoromethyl-propyl)-[1,2,3]triazol-1-ylmethyl]-indolizine-2-carboxylic acid amide]"
6,< 300,"CCOC(=O)c1cc2cc(Cn3cc(C(O)(CC)C(F)(F)F)nn3)ccn2c1-c1ccc(F)nc1 (stereo not shown) [Compound 1-29, 3-(6-Fluoro-pyridin-3-yl)-7-[4-(1-hydroxy-1-trifluoromethyl-propyl) [1,2,3]triazol-1-ylmethyl]-indolizine-2-carb oxylic acid ethyl ester]"
7,< 300,"CCC(O)(c1cn(Cc2ccn3c(-c4ccc(F)cc4)c(CO)cc3c2)nn1)C(F)(F)F (stereo not shown) [Compound 1-30, 1,1,1-Trifluoro-2-{1-[3-(4-fluoro-phenyl)-2-hydroxymethyl-indolizin-7-ylmethyl]-1H-[1,2,3]triazol-4-yl}-butan-2-ol]"
8,> 1000,"CCC(O)(c1cn(Cc2ccn3c(-c4ccc(F)nc4)c(C(N)=O)cc3c2)nn1)C(F)(F)F (stereo not shown) [Compound 1-31, 3-(6-Fluoro-pyridin-3-yl)-7-[4-(1-hydroxy-1-trifluoromethyl-propyl)-[1,2,3]triazol-1-ylmethyl]-indolizine-2-carboxylic acid amide]"
9,< 300,"CCC(O)(c1cn(Cc2ccn3c(-c4ccc(F)nc4)c(C#N)cc3c2)nn1)C(F)(F)F (stereo not shown) [Compound 1-32, 3-(6-Fluoro-pyridin-3-yl)-7-[4-(1-hydroxy-1-trifluoromethyl-propyl)-[1,2,3]triazol-1-ylmethyl]-indolizine-2-carbonitrile]"
10,< 300,"CCC(O)(c1cn(Cc2ccn3c(-c4ccc(F)cc4)c(C=O)cc3c2)nn1)C(F)(F)F (stereo not shown) [Compound 1-33, 3-(4-Fluoro-phenyl)-7-[4-(1-hydroxy-1-trifluoromethyl-propyl)-[1,2,3]triazol-1-ylmethyl]-indolizine-2-carbaldehyde]"
11,< 300,"CCC(O)(c1cn(Cc2ccn3c(-c4ccc(F)cc4)c(CS(C)(=O)=O)cc3c2)nn1)C(F)(F)F (stereo not shown) [Compound 1-34, 1,1,1-Trifluoro-2-{1-[3-(4-fluoro-phenyl)-2-methanesulfonylmethyl-indolizin-7-ylmethyl]-1H-[1,2,3]triazol-4-yl}-butan-2-ol]"
12,300 to 1000,"CCC(O)(c1cn(Cc2ccn3c(-c4ccc(OC)nc4)c(C(N)=O)cc3c2)nn1)C(F)(F)F (stereo not shown) [Compound 1-35, 7-[4-(1-Hydroxy-1-trifluoromethyl-propyl)-[1,2,3]triazol-1-ylmethyl]-3-(6-methoxy-pyridin-3-yl)-indolizine-2-carboxylic acid amide]"
13,< 300,"CCOC(=O)c1cc2cc(Cn3cc(C(O)(CC)C(F)(F)F)nn3)ccn2c1-c1ccc(OC)nc1 (stereo not shown) [Compound 1-36, 7-[4-(1-Hydroxy-1-trifluoromethyl-propyl)-[1,2,3]triazol-1-ylmethyl]-3-(6-methoxy-pyridin-3-yl)-indolizine-2-carboxylic acid ethyl ester]"
14,< 300,"CCOC(=O)CCNCc1cc2cc(Cn3cc(C(O)(CC)C(F)(F)F)nn3)ccn2c1-c1ccc(F)cc1 (stereo not shown) [Compound 1-37, 3-({3-(4-Fluoro-phenyl)-7-[4-(1-hydroxy-1-trifluoromethyl-propyl)-[1,2,3]triazol-1-ylmethyl]-indolizin-2-ylmethyl}-amino)-propionic acid ethyl ester]"
15,300 to 1000,"CCC(O)(c1cn(Cc2ccn3c(-c4ccc(F)cc4)c(CN4CCOCC4)cc3c2)nn1)C(F)(F)F (stereo not shown) [Compound 1-38, 1,1,1-Trifluoro-2-{1-[3-(4-fluoro-phenyl)-2-morpholin-4-ylmethyl-indolizin-7-ylmethyl]-1H-[1,2,3]triazol-4-yl}-butan-2-ol]"
16,< 300,"CCC(O)(c1cn(Cc2ccn3c(-c4ccc(F)cc4)c(/C=C/C(=O)OC)cc3c2)nn1)C(F)(F)F (stereo not shown) [Compound 1-39, (E)-3-{3-(4-Fluoro-phenyl)-7-[4-(1-hydroxy-1-trifluoromethyl-propyl)-[1,2,3]triazol-1-ylmethyl]-indolizin-2-yl}-acrylic acid methyl ester]"
17,> 1000,"CCC(O)(c1cn(Cc2ccn3c(-c4ccc(F)cc4)c(CNCCC(=O)O)cc3c2)nn1)C(F)(F)F (stereo not shown) [Compound 1-40, 3-({3-(4-Fluoro-phenyl)-7-[4-(1-hydroxy-1-trifluoromethyl-propyl)-[1,2,3]triazol-1-ylmethyl]-indolizin-2-ylmethyl}-amino)-propionic acid]"
18,300 to 1000,"CCC(O)(c1cn(Cc2ccn3c(-c4ccc(F)cc4)c(/C=C/C(=O)O)cc3c2)nn1)C(F)(F)F (stereo not shown) [Compound 1-41, (E)-3-{3-(4-Fluoro-phenyl)-7-[4-(1-hydroxy-1-trifluoromethyl-propyl)-[1,2,3]triazol-1-ylmethyl]-indolizin-2-yl}-acrylic acid]"
19,< 300,"CCC(O)(c1cn(Cc2ccn3c(-c4ccc(F)cc4)c(CNCCC#N)cc3c2)nn1)C(F)(F)F (stereo not shown) [Compound 1-42, 3-({3-(4-Fluoro-phenyl)-7-[4-(1-hydroxy-1-trifluoromethyl-propyl)-[1,2,3]triazol-1-ylmethyl]-indolizin-2-ylmethyl}-amino)-propionitrile]"
20,< 300,"CCC(O)(c1cn(Cc2ccn3c(-c4ccc(F)cc4)c(/C=C/C(N)=O)cc3c2)nn1)C(F)(F)F (stereo not shown) [Compound 1-43, (E)-3-{3-(4-Fluoro-phenyl)-7-[4-(1-hydroxy-1-trifluoromethyl-propyl)-[1,2,3]triazol-1-ylmethyl]-indolizin-2-yl}-acrylamide]"
21,< 300,"CCC(O)(c1cn(Cc2ccn3c(-c4ccc(F)cc4)c(COC)cc3c2)nn1)C(F)(F)F (stereo not shown) [Compound 1-44, 1,1,1-Trifluoro-2-{1-[3-(4-fluoro-phenyl)-2-methoxymethyl-indolizin-7-ylmethyl]-1H-[1,2,3]triazol-4-yl}-butan-2-ol]"
22,< 300,"CCC(OC)(c1cn(Cc2ccn3c(-c4ccc(F)cc4)c(COC)cc3c2)nn1)C(F)(F)F (stereo not shown) [Compound 1-45, 3-(4-Fluoro-phenyl)-2-methoxymethyl-7-[4-(1-methoxy-1-trifluoromethyl-propyl)-[1,2,3]triazol-1-ylmethyl]-indolizine]"
23,< 300,"CCOC(=O)c1cc2cc(Cn3cc(C(O)(CC)C(F)(F)F)nn3)ccn2c1-c1cccc(F)c1 (stereo not shown) [Compound 1-46, 3-(3-Fluoro-phenyl)-7-[4-(1-hydroxy-1-trifluoromethyl-propyl)-[1,2,3]triazol-1-ylmethyl]-indolizine-2-carboxylic acid ethyl ester]"
24,< 300,"CCOC(=O)c1cc2cc(Cn3cc(C(O)(CC)C(F)(F)F)nn3)ccn2c1-c1cccc(S(C)(=O)=O)c1 (stereo not shown) [Compound 1-47, 7-[4-(1-Hydroxy-1-trifluoromethyl-propyl)-[1,2,3]triazol-1-ylmethyl]-3-(3-methanesulfonyl-phenyl)-indolizine-2-carboxylic acid ethyl ester]"
25,< 300,"CCC(O)(c1cn(Cc2ccn3c(-c4cccc(F)c4)c(C(N)=O)cc3c2)nn1)C(F)(F)F (stereo not shown) [Compound 1-48, 3-(3-Fluoro-phenyl)-7-[4-(1-hydroxy-1-trifluoromethyl-propyl)-[1,2,3]triazol-1-ylmethyl]-indolizine-2-carboxylic acid amide]"
26,300 to 1000,"CCC(O)(c1cn(Cc2ccn3c(-c4cccc(S(C)(=O)=O)c4)c(C#N)cc3c2)nn1)C(F)(F)F (stereo not shown) [Compound 1-49, 7-[4-(1-Hydroxy-1-trifluoromethyl-propyl)-[1,2,3]triazol-1-ylmethyl]-3-(3-methanesulfonyl-phenyl)-indolizine-2-carbonitrile]"
27,> 1000,"CCC(O)(c1cn(Cc2ccn3c(-c4ccc(F)cc4)c(C(=O)N4CCS(=O)(=O)C4)cc3c2)nn1)C(F)(F)F (stereo not shown) [Compound 1-50, (1,1-Dioxo-1λ^6-thiazolidin-3-yl)-{3-(4-fluoro-phenyl)-7-[4-(1-hydroxy-1-trifluoromethyl-propyl)-[1,2,3]triazol-1-ylmethyl]-indolizin-2-yl}-methanone]"
28,< 300,"CCC(O)(c1cn(Cc2ccn3c(-c4ccc(F)cc4)c(C(=O)N(C)OC)cc3c2)nn1)C(F)(F)F (stereo not shown) [Compound 1-51, 3-(4-Fluoro-phenyl)-7-[4-(1-hydroxy-1-trifluoromethyl-propyl)-[1,2,3]triazol-1-ylmethyl]-indolizine-2-carboxylic acid methoxy-methyl-amide]"
